The structures appear in SMILES notation.

The values below come from patent publication US11608335B2, “Somatostatin modulators and uses thereof” (CRINETICS PHARMACEUTICALS, INC., priority 2018, dated 2023).

For the test, the target named is human somatostatin receptor subtype 5 (Homo sapiens, UniProt P35346). Description: cAMP assay for SST5R (inhibition of cAMP via human SST5 receptor). In general terms: Changes in cAMP serve as a functional read-out for many G protein-coupled receptors.
Chain of human somatostatin receptor subtype 5 (P35346 whole entry): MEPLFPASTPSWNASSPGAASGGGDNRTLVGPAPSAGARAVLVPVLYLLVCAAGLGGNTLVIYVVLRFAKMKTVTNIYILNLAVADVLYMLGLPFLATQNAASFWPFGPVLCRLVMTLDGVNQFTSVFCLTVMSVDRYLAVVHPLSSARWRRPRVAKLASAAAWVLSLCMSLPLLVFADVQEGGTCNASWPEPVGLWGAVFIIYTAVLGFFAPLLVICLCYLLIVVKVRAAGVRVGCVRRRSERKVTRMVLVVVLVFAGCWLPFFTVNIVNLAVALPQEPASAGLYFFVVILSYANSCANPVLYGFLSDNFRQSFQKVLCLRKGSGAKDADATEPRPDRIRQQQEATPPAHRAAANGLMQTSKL
With `COc1ccc(-c2cncc(-c3nc4cccc(F)c4[nH]3)c2N2CC[C@H](N)C2)cc1C(N)=O` [Compound 2-73, 5-{4-[(3S)-3-aminopyrrolidin-1-yl]-5-(4-fluoro-1H-1,3-benzodiazol-2-yl)pyridin-3-yl}-2-methoxybenzamide], the EC50 was above 1 µM.
With `Cn1c(-c2cncc(-c3cccc(C#N)c3)c2N2CC[C@H](N)C2)nc2c(F)cccc21` [Compound 2-74, 3-{4-[(3S)-3-aminopyrrolidin-1-yl]-5-(4-fluoro-1-methyl-1H-1,3-benzodiazol-2-yl)pyridin-3-yl}benzonitrile] the figure was below 0.01 µM; with `Cn1c(-c2cncc(-c3cccc(C#N)c3)c2N2CC[C@H](N)C2)nc2c(Cl)cccc21` [Compound 2-75, 3-{4-[(3S)-3-aminopyrrolidin-1-yl]-5-(4-chloro-1-methyl-1H-1,3-benzodiazol-2-yl)pyridin-3-yl}benzonitrile], below 0.01 µM.
In the case of `N#Cc1cc(F)cc(-c2cncc(-c3nc4cccc(F)c4[nH]3)c2N2CCC(N)(C(F)(F)F)C2)c1` (centres unmarked) [Compound 2-78, 3-{4-[3-amino-3-(trifluoromethyl)pyrrolidin-1-yl]-5-(4-fluoro-1H-1,3-benzodiazol-2-yl)pyridin-3-yl}-5-fluorobenzonitrile] it was 0.1 to 1 µM; in that of `N#Cc1cccc(-c2cncc(-c3nc4c(C(=O)O)cccc4[nH]3)c2N2CC[C@H](N)C2)c1` [Compound 2-82, 2-{4-[(3S)-3-aminopyrrolidin-1-yl]-5-(3-cyanophenyl)pyridin-3-yl}-1H-1,3-benzodiazole-4-carboxylic acid], above 1 µM; in that of `N#Cc1cccc(-c2cncc(-c3nc4c(C(N)=O)cccc4[nH]3)c2N2CC[C@H](N)C2)c1` [Compound 2-83, 2-{4-[(3S)-3-aminopyrrolidin-1-yl]-5-(3-cyanophenyl)pyridin-3-yl}-1H-1,3-benzodiazole-4-carboxamide], 0.1 to 1 µM.
In turn, `C#Cc1cccc2[nH]c(-c3cncc(-c4cccc(C#N)c4)c3N3CC[C@H](N)C3)nc12` [Compound 2-84, 3-{4-[(3S)-3-Aminopyrrolidin-1-yl]-5-(4-ethynyl-1H-1,3-benzodiazol-2-yl)pyridin-3-yl}benzonitrile] displayed an EC50 below 0.01 µM.
The compound `NC(=O)c1cccc(-c2cncc(-c3nc4cccc(F)c4[nH]3)c2N2CC[C@H](N)C2)c1` [Compound 2-85, 3-{4-[(3S)-3-aminopyrrolidin-1-yl]-5-(4-fluoro-1H-1,3-benzodiazol-2-yl)pyridin-3-yl}benzamide] displayed an EC50 below 0.01 µM.
With `N#Cc1cc(F)cc(-c2cncc(-c3nc4cc(F)cc(F)c4[nH]3)c2N2CC[C@H](N)C2)c1` [Compound 2-87, 3-{4-[(3S)-3-aminopyrrolidin-1-yl]-5-(4,6-difluoro-1H-1,3-benzodiazol-2-yl)pyridin-3-yl}-5-fluorobenzonitrile] the figure was below 0.01 µM; with `N#Cc1cc(F)cc(-c2cncc(-c3nc4cccc(F)c4[nH]3)c2N2C[C@@H](N)C[C@H]2CO)c1` [Compound 2-88, 3-{4-[(2S,4S)-4-amino-2-(hydroxymethyl)pyrrolidin-1-yl]-5-(4-fluoro-1H-1,3-benzodiazol-2-yl)pyridin-3-yl}-5-fluorobenzonitrile], above 1 µM; with `CNC(=O)c1cccc2nc(-c3cncc(-c4cccc(C#N)c4)c3N3CC[C@H](N)C3)[nH]c12` [Compound 2-90, 2-{4-[(3S)-3-aminopyrrolidin-1-yl]-5-(3-cyanophenyl)pyridin-3-yl}-N-methyl-1H-1,3-benzodiazole-4-carboxamide], above 1 µM.
With `N#Cc1cccc(-c2cncc(-c3nc4c(CO)cccc4[nH]3)c2N2CC[C@H](N)C2)c1` [Compound 2-91, 3-{4-[(3S)-3-aminopyrrolidin-1-yl]-5-[7-(hydroxymethyl)-1H-1,3-benzodiazol-2-yl]pyridin-3-yl}benzonitrile] the figure was 0.1 to 1 µM; with `CS(=O)(=O)c1cc(F)cc(-c2cncc(-c3nc4cccc(F)c4[nH]3)c2N2CC[C@H](N)C2)c1` [Compound 2-92, (3S)-1-[3-(4-fluoro-1H-1,3-benzodiazol-2-yl)-5-(3-fluoro-5-methanesulfonylphenyl)pyridin-4-yl]pyrrolidin-3-amine], 0.01 to 0.1 µM; with `CS(=O)(=O)c1cccc(-c2cncc(-c3nc4cc(F)cc(F)c4[nH]3)c2N2CC[C@H](N)C2)c1` [Compound 2-93, (3S)-1-[3-(4,6-difluoro-1H-1,3-benzodiazol-2-yl)-5-(3-methanesulfonylphenyl)pyridin-4-yl]pyrrolidin-3-amine], 0.1 to 1 µM.
In the case of `N[C@H]1CCN(c2c(-c3cc(F)cc(Cl)c3)cncc2-c2nc3ccc(Cl)cc3[nH]2)C1` [Compound 2-95, (3S)-1-[3-(5-chloro-1H-1,3-benzodiazol-2-yl)-5-(3-chloro-5-fluorophenyl)pyridin-4-yl]pyrrolidin-3-amine] it was 0.01 to 0.1 µM.
On to `Cc1ccc(F)c2nc(-c3cncc(-c4cc(F)cc(C(N)=O)c4)c3N3CC[C@H](N)C3)[nH]c12` [Compound 2-96, 3-{4-[(3S)-3-aminopyrrolidin-1-yl]-5-(7-fluoro-4-methyl-1H-1,3-benzodiazol-2-yl)pyridin-3-yl}-5-fluorobenzamide], for which the EC50 was below 0.01 µM.
As for `Cc1cccc2nc(-c3cncc(-c4cccc(C(N)=O)c4)c3N3CC[C@H](N)C3)[nH]c12` [Compound 2-97, 3-{4-[(3S)-3-aminopyrrolidin-1-yl]-5-(4-methyl-1H-1,3-benzodiazol-2-yl)pyridin-3-yl}benzamide], the EC50 is below 0.01 µM.
In the case of `Cc1cccc2nc(-c3cncc(-c4ccc(Cl)c(C#N)c4)c3N3CC[C@H](N)C3)[nH]c12` [Compound 2-98, 5-{4-[(3S)-3-aminopyrrolidin-1-yl]-5-(4-methyl-1H-1,3-benzodiazol-2-yl)pyridin-3-yl}-2-chlorobenzonitrile] it was below 0.01 µM.
Take `N#Cc1cc(F)cc(-c2cncc(-c3nc4ccc(F)c(F)c4[nH]3)c2N2CC[C@H](N)C2)c1` [Compound 2-99, 3-{4-[(3S)-3-aminopyrrolidin-1-yl]-5-(4,5-difluoro-1H-1,3-benzodiazol-2-yl)pyridin-3-yl}-5-fluorobenzonitrile]: the concentration giving a half-maximal response (EC50) was below 0.01 µM.
With `CCc1cccc2[nH]c(-c3cncc(-c4cccc(C#N)c4)c3N3CC[C@H](N)C3)nc12` [Compound 2-100, 3-{4-[(3S)-3-aminopyrrolidin-1-yl]-5-(4-ethyl-1H-1,3-benzodiazol-2-yl)pyridin-3-yl}benzonitrile] the figure was below 0.01 µM; with `Cc1ccc2nc(-c3cncc(-c4cc(F)cc(Cl)c4)c3N3CC[C@H](N)C3)[nH]c2c1` [Compound 2-102, (3S)-1-[3-(3-chloro-5-fluorophenyl)-5-(5-methyl-1H-1,3-benzodiazol-2-yl)pyridin-4-yl]pyrrolidin-3-amine], below 0.01 µM; with `N#Cc1ccc2nc(-c3cncc(-c4cc(F)cc(Cl)c4)c3N3CC[C@H](N)C3)[nH]c2c1` [Compound 2-103, 2-{4-[(3S)-3-aminopyrrolidin-1-yl]-5-(3-chloro-5-fluorophenyl)pyridin-3-yl}-1H-1,3-benzodiazole-5-carbonitrile], 0.01 to 0.1 µM.
In the case of `COc1ccc2nc(-c3cncc(-c4cc(F)cc(Cl)c4)c3N3CC[C@H](N)C3)[nH]c2c1` [Compound 2-104, (3S)-1-[3-(3-chloro-5-fluorophenyl)-5-(5-methoxy-1H-1,3-benzodiazol-2-yl)pyridin-4-yl]pyrrolidin-3-amine] it was 0.01 to 0.1 µM; in that of `Cc1cccc2nc(-c3cncc(-c4ccnc(C(N)=O)c4)c3N3CCC(C)(N)C3)[nH]c12` (centres unmarked) [Compound 2-105, 4-(3-amino-3-methylpyrrolidin-1-yl)-5-(4-methyl-1H-1,3-benzodiazol-2-yl)-[3,4′-bipyridine]-2′-carboxamide], 0.01 to 0.1 µM; in that of `Cc1ccc(F)c2[nH]c(-c3cncc(-c4ccnc(C(N)=O)c4)c3N3CC[C@H](N)C3)nc12` [Compound 2-107, 4-[(3S)-3-aminopyrrolidin-1-yl]-5-(7-fluoro-4-methyl-1H-1,3-benzodiazol-2-yl)-[3,4′-bipyridine]-2′-carboxamide], above 1 µM.
With `Cn1c(-c2cncc(-c3cc(F)cc(C#N)c3)c2N2CC[C@H](N)C2)nc2ccccc21` [Compound 2-110, 3-{4-[(3S)-3-aminopyrrolidin-1-yl]-5-(1-methyl-1H-1,3-benzodiazol-2-yl)pyridin-3-yl}-5-fluorobenzonitrile] the figure was 0.01 to 0.1 µM; with `CCCn1c(-c2cncc(-c3cc(F)cc(C#N)c3)c2N2CC[C@H](N)C2)nc2ccccc21` [Compound 2-111, 3-{4-[(3S)-3-aminopyrrolidin-1-yl]-5-(1-propyl-1H-1,3-benzodiazol-2-yl)pyridin-3-yl}-5-fluorobenzonitrile], 0.01 to 0.1 µM.
`COCCn1c(-c2cncc(-c3cc(F)cc(C#N)c3)c2N2CC[C@H](N)C2)nc2ccccc21` [Compound 2-112, 3-{4-[(3S)-3-aminopyrrolidin-1-yl]-5-[1-(2-methoxyethyl)-1H-1,3-benzodiazol-2-yl]pyridin-3-yl}-5-fluorobenzonitrile] yielded an EC50 of 0.1 to 1 µM.
In the case of `N#CCn1c(-c2cncc(-c3cc(F)cc(C#N)c3)c2N2CC[C@H](N)C2)nc2ccccc21` [Compound 2-113, 3-{4-[(3S)-3-aminopyrrolidin-1-yl]-5-[1-(cyanomethyl)-1H-1,3-benzodiazol-2-yl]pyridin-3-yl}-5-fluorobenzonitrile] it was 0.1 to 1 µM.
With `Cc1cccc2c1nc(-c1cncc(-c3cc(F)cc(C#N)c3)c1N1CC[C@H](N)C1)n2C` [Compound 2-114, 3-{4-[(3S)-3-aminopyrrolidin-1-yl]-5-(1,4-dimethyl-1H-1,3-benzodiazol-2-yl)pyridin-3-yl}-5-fluorobenzonitrile] the figure was below 0.01 µM; with `Cn1c(-c2cncc(-c3cc(F)cc(C#N)c3)c2N2CC[C@H](N)C2)nc2cccc(Cl)c21` [Compound 2-117, 3-{4-[(3S)-3-aminopyrrolidin-1-yl]-5-(7-chloro-1-methyl-1H-1,3-benzodiazol-2-yl)pyridin-3-yl}-5-fluorobenzonitrile], 0.01 to 0.1 µM; with `Cc1cccc2nc(-c3cncc(-c4cc(F)cc(C(N)=O)c4)c3N3CCC(C)(N)C3)[nH]c12` (centres unmarked) [Compound 2-118, 3-[4-(3-amino-3-methylpyrrolidin-1-yl)-5-(4-methyl-1H-1,3-benzodiazol-2-yl)pyridin-3-yl]-5-fluorobenzamide], below 0.01 µM.

The term EC50 denotes the midpoint of the concentration-response curve.
